Where a SMILES comes first, the peptide text is derived from it.

For orientation: logP means a log measure of how a compound divides between an organic and an aqueous phase. Higher therefore signals a more lipophilic compound. In the case of `C=CCC(C)(C(=O)OCC)S(=O)(=O)c1ccc([N+](=O)[O-])cc1` (stereo unspecified), the lipophilicity (logP) came to 2.3.

On to `CCOC(=O)C1=C(C)NC(C)=C(C(=O)OC)C1c1cccc2c1OCCO2` (stereo unspecified), for which the lipophilicity (logP) was 3.57.

For the compound `CC(C)(C)NCc1ccc(S(=O)(=O)c2csc(S(N)(=O)=O)c2)cc1`, the logP worked out at 1.76.

Turning to `Cc1ccc(C)c(OCC2CN=C(N)O2)c1` (stereo unspecified), the logP was found to be 2.29.

Compound `COc1ccc(F)cc1CNC1CCCNC1c1ccccc1` (stereo unspecified) displayed a log partition coefficient (logP) of 3.5.

Turning to `COc1ccc(CCNCC(O)COc2ccc(-c3nc(C)c(Cl)[nH]3)cc2)cc1OC` (stereo unspecified), the log partition coefficient (logP) is 3.9.

`CCN(CCO)CCCOc1cc2ncnc(Nc3cc(CC(=O)Nc4cccc(F)c4)[nH]n3)c2cc1OC` yielded a logP of 3.7.

Turning to `C[N+](C)([O-])CC(c1ccccc1)c1ccccc1`, the logP turned out to be 1.01.

The compound `COc1ccc(CCNCC(O)COc2ccc(-c3nc(C)c[nH]3)cc2Br)cc1OC` (stereo unspecified) yielded a logP of 3.8.

Regarding `CCOC(=O)c1c[nH]c2ccccc12`, the logP came out at 3.04.

In turn, `Nc1nnnn1-c1ccc(O)cc1` returned a logP of 0.33.

In the case of `c1ccc2c(c1)OCCOCCOc1ccccc1OCCO2`, the log partition coefficient (logP) amounted to 2.21.

As to `COc1ccc(C2Cc3c(Cl)cccc3N(CCN(C)C)C(=O)C2OC(C)=O)cc1` (stereo unspecified), the logP stood at 4.4.

Take `CC(=O)OCOC(=O)N(C)N=Nc1ccc(C)cc1`: the logP amounted to 3.28.

In turn, `C=CCC(=O)Nc1ccc(Cl)c(Cl)c1` returned a log partition coefficient (logP) of 3.63.

Regarding `CCCC(=NOCC)C1=C(O)CC2(CCC(C)C2)OC1=O` (stereo unspecified), the logP came to 3.66.

The compound `COc1cc(SC)ccc1-c1cn2cccnc2n1` returned a logP of 2.44.

For the compound `COC(=O)N1CCN(C(=O)Cc2ccc(Cl)c(Cl)c2)C(CN2CCCC2)C1` (stereo unspecified), the lipophilicity (logP) turned out to be 4.1.

Take `CC(C)c1cccc(C(C)C)c1NC(=O)CC(=O)C1(c2ccccc2)CCCC1`: the logP was determined as 4.55.

Consider `CC(C)CC(NC(=O)C(Cc1ccccc1)NC(=O)C(N)C(C)C)C(=O)NC(C(=O)O)C(C)O` (stereo unspecified) (H-VFLT-OH; configuration not given here), for which the logP was -1.32.

In turn, `c1ccc(CN2CCN(CCCOn3nnc4ccccc43)CC2)cc1` displayed a logP of 4.

`O=C(NC1CCCCC1)NS(=O)(=O)c1cnccc1NC1CCCCC1` had a logP of 4.23.

In turn, `Nc1nnnn1-c1cccc([N+](=O)[O-])c1` came in with a logP of 0.67.

`CN(C)CCc1ccccc1` displayed a logP of 2.38.

`NC(Cc1ccccc1)C(=O)N1CCCC1C(=O)O` (stereo not drawn) (H-Phe-Pro-OH; configuration not given here): the log partition coefficient (logP) is -1.23.

Regarding `CCc1ccc(OCC2CN=C(N)O2)cc1` (stereo unspecified), the log partition coefficient (logP) was 2.27.

`C#CCC(O)(c1ccc(C(C)C)cc1)c1cccnc1` (stereo unspecified): the logP turned out to be 2.16.

With `CC(=O)OC(C)(C)C1CCC2(C)CCCC(O)C2C1` (stereo unspecified), the logP was 3.62.

Compound `C=C(C)C(=O)OCCCCCCCCCCCC` had a logP of 6.57.

Take `CCC(=O)NCCCCCN(O)C(=O)CCC(=O)NCCCCCN(O)C(=O)CCC(=O)NCCCCCN(O)C(C)=O`: the log partition coefficient (logP) worked out at 0.17.

Consider `O=c1c2c(nc3n1CCC3)CCC2`, for which the logP was determined as 0.22. The logP values of the last two compounds are within 0.2 log units of each other.

Consider `CCc1c(O)c(=O)ccn1CCCO`, for which the log partition coefficient (logP) is -0.44.

`Cn1c2c(c3cc(Cl)ccc31)CCNC2` came in with a logP of 2.3.

As to `Cc1cc2cc3ccc(=O)oc3c(C)c2o1`, the logP was 2.93.

`Cc1nc2c3c(c(C(=O)NC4CCC4)cn2c1C)CCC(c1ccccc1)O3` (stereo unspecified) gave a lipophilicity (logP) of 4.5.

As to `O=Cc1ccc2ccc3cccc4ccc1c2c34`, the log partition coefficient (logP) was 4.23.

Turning to `COc1cccc(OCC2CN=C(N)O2)c1` (stereo unspecified), the log partition coefficient (logP) is 1.34.

On to `CC1CN(CC2CN=C(N)O2)CC(C)O1` (stereo unspecified), for which the logP came to 0.16.

For the compound `OCC1OC(n2cnc3c(Nc4ccccc4)ncnc32)C(O)C1O` (stereo unspecified), the log partition coefficient (logP) is 1.28.

For `CC(N)C(=O)NC(Cc1ccccc1)C(=O)NCC(=O)NC(C(=O)NC(Cc1ccccc1)C(=O)O)C(C)C` (stereo unspecified) (H-AFGVF-OH; configuration not given here), the lipophilicity (logP) is -0.59.

Compound `CCOCCCNc1[nH]cnc2ncnc1-2` registered a logP of 1.15.

With `CSCCC(NC(=O)C(Cc1ccccc1)NC(=O)CNC(=O)CNC(=O)C(N)Cc1ccc(O)cc1)C(=O)O` (stereo unspecified), the lipophilicity (logP) was -1.39.

The compound `O=C(O)C1CSC(c2ccc(O)cc2O)=N1` (stereo unspecified) came in with a logP of 1.1.

`Cc1oc2nc3oc(=O)cc(C)c3cc2c1C`: the logP was 2.25.

Regarding `OC(CNCc1ccccc1)CON=C(C1CC1)C1CC1` (stereo unspecified), the lipophilicity (logP) was found to be 2.08.

`COC(=O)c1cc2cccc3ccc4cccc1c4c32`: the logP was determined as 4.73.

`Cc1nc2c3c(c(C(=O)NC4CC4)cn2c1C)CCC(c1ccccc1)O3` (stereo unspecified) gave a logP of 4.

As to `CC(C)CC(NC(=O)C(Cc1ccccc1)NC(=O)CNC(=O)C(NC(=O)C(N)Cc1ccc(O)cc1)C(C)O)C(=O)O` (stereo unspecified) (H-YTGFL-OH; configuration not given here), the log partition coefficient (logP) is -1.18.

Regarding `Clc1cccc(N2CCN(CCCOn3nnc4ccccc43)CC2)c1`, the log partition coefficient (logP) was found to be 4.2.

`O=c1ccc2ccc3occc3c2[nH]1` came in with a logP of 1.82.

The compound `c1ccc(CCCCNc2[nH]cnc3ncnc2-3)cc1` had a logP of 3.29.

For `Cc1ccc(C(=O)OCCCn2ccc(=O)c(O)c2C)cc1`, the log partition coefficient (logP) was 1.79.

On to `O=C(O)Cc1ccc2c(c1)SCc1ccccc1C2=O`, for which the logP was determined as 2.97.

For `CCOP(=O)(OCC)C(C)(C)[N+]([O-])=Cc1ccncc1`, the logP came to 0.32.

In the case of `ClCC1(CCl)C2C(Cl)C(Cl)C1(CCl)C(Cl)(Cl)C2Cl` (stereo unspecified), the logP turned out to be 5.74.

With `Clc1ccc(/C=N/OCCc2nc(-c3ccccc3)n[nH]2)cc1`, the logP worked out at 2.83.

In turn, `OCC1OC(Oc2ccc3cc(Br)ccc3c2)C(O)C(O)C1O` (stereo unspecified) had a logP of 1.97.

In the case of `Nc1ncnc2c1ncn2C1OC(CCl)C(O)C1O` (stereo unspecified), the logP was -0.06.

The compound `CCCCCN(CCCCC)CC(O)c1ccccc1` (stereo unspecified) returned a logP of 2.86.

Consider `CCCCOC1C(=O)NC(=O)NC1=[N+]=[N-]` (stereo unspecified), for which the logP is -0.55.

Regarding `COC(=O)Cc1ccc(O)cc1`, the logP was 1.63.

`COC(=O)C(C)NP(=O)(OCC1C=CC(n2cc(C)c(=O)[nH]c2=O)O1)Oc1cccc(C(C)=O)c1` (stereo unspecified) displayed a log partition coefficient (logP) of 0.92.

With `OCCCNc1ncnc2c1ncn2C1OC(CO)C(O)C1O` (stereo unspecified), the logP was -0.86.

`CON(C)C(=O)c1cn2c(C)c(C)nc2c2c1CCC(c1ccccc1)O2` (stereo unspecified) displayed a logP of 3.6.

The compound `O=C1CN=C(c2ccccc2)c2ccc(C(F)(F)F)cc2N1` came in with a log partition coefficient (logP) of 3.18.

Compound `Cc1c(O)c(=O)ccn1CCCOC(=O)c1ccc(O)cc1` had a lipophilicity (logP) of 0.8.

With `CCCC(=O)NCCCCCN(O)C(=O)CCC(=O)NCCCCCN(O)C(=O)CCC(=O)NCCCCCN(O)C(C)=O`, the logP came to 0.42.

In turn, `CCOc1cccc(CNc2[nH]cnc3ncnc2-3)c1` gave a log partition coefficient (logP) of 2.57.

Compound `Cc1ccc(Br)cc1F` registered a lipophilicity (logP) of 3.64.

On to `CC(C)(C)c1ccc(OCC2CN=C(N)O2)cc1` (stereo unspecified), for which the logP amounted to 2.84.

As for `CC(=O)c1ccc([N+](=O)[O-])cc1O`, the logP was found to be 2.05.

On to `CCN(CC)CCSC(=NO)c1noc(-c2ccccc2)n1`, for which the logP was 3.05.

On to `Cc1cn(C2C=CC(COP3(=O)OCc4cc(Cl)ccc4O3)O2)c(=O)[nH]c1=O` (stereo unspecified), for which the logP turned out to be 0.88.

In the case of `CSCC[C@H](N)C(=O)N1CCC[C@H]1C(=O)O` (H-Met-Pro-OH), the logP was -2.52.

In turn, `CCOC(=O)C(Cc1ccccc1)(Cc1ccccc1)S(=O)(=O)c1ccc([N+](=O)[O-])cc1` displayed a lipophilicity (logP) of 3.4.

In the case of `Cc1cccc(C)c1/C=C/c1c[nH]cn1`, the logP amounted to 3.35. This logP and that of the compound before are within 0.2 log units of each other.

In the case of `CN(C)CCOC(=O)c1ccc(C(F)(F)F)cc1`, the logP was found to be 2.88.

`C=CC(=O)OCC(COC(=O)C=C)(COC(=O)C=C)COC(=O)C=C` registered a logP of 2.11.

As for `CC(C)OP(=O)(OC(C)C)C(Cl)(Cl)P(=O)(OC(C)C)OC(C)C`, the logP was 2.89.

Consider `COc1ccc(C2Cc3cc(OC)ccc3N(CCN(C)C)C(=O)C2OC(C)=O)cc1` (stereo unspecified), for which the log partition coefficient (logP) is 3.2.

As to `CCCCCCCCCCCCCCNCCO`, the log partition coefficient (logP) was determined as 5.74.

Consider `Cn1c([N+](=O)[O-])cnc1C1=NOC2CCCCC12` (stereo unspecified), for which the log partition coefficient (logP) is 2.22.

As for `O=c1[nH]c(=O)n(Cc2ccc(Cl)cc2Cl)cc1F`, the lipophilicity (logP) was found to be 1.96.

Consider `CC(C)Nc1nc(N)nc(O)n1`, for which the logP is 1.27.

In turn, `CC1CCCCC1NC(=O)N1C(=O)N(C)CC1O` (stereo unspecified) showed a log partition coefficient (logP) of 2.2.

In the case of `CC(=O)OCC1OC(n2cc(F)c(=O)[nH]c2=O)C(OC(C)=O)C1OC(C)=O` (stereo unspecified), the logP was -0.25.

`CCCC(=NOCC)C1=C(O)CC2(CCC(CC)CC2)OC1=O` (stereo unspecified) gave a lipophilicity (logP) of 4.47.

For the compound `C#CCCCCl`, the log partition coefficient (logP) was found to be 1.85.

In the case of `Brc1ccc2ccc3cccc4ccc1c2c34`, the logP came to 5.81.

Turning to `COc1ccc(CCN(C)CCCC(C#N)(c2cc(OC)c(OC)c(OC)c2)C(C)C)cc1OC` (stereo unspecified), the log partition coefficient (logP) was determined as 3.71.

Compound `Nc1nc(NC2CC2)c2ncn([C@@H]3C=C[C@@H](CO)C3)c2n1` gave a logP of 1.22.

For `OC(CNC1CCCC1)CON=C(C1CC1)C1CC1` (stereo unspecified), the log partition coefficient (logP) worked out at 2.46.

As for `CN(C)C1=NC(=O)N(c2ccc(Cl)cc2)C1`, the log partition coefficient (logP) was determined as 1.6.

On to `CCC1(C(=O)NC(C)c2ccc(Cl)cc2)C(C)C1(Cl)Cl` (stereo unspecified), for which the logP turned out to be 4.23.

In turn, `CCN(CC)c1ccc(-n2c(C(F)(F)F)nn(C)c2=S)cn1` showed a log partition coefficient (logP) of 3.14.

In turn, `CC(=O)c1c(C)nc2c3c(c(C(=O)N(C)C)cn12)CCC(c1ccccc1)O3` (stereo unspecified) had a lipophilicity (logP) of 2.75.

As for `CC(C)CC(NC(=O)C(CC(C)C)NC(=O)C(N)CO)C(=O)O` (stereo not drawn) (H-Ser-Leu-Leu-OH; configuration not given here), the logP was -2.03.

For `NC(N)=NCCCNC(=O)[C@@H]1CCCCN1C(=O)[C@@H](CC1CCCCC1)NCC(=O)O`, the logP was -0.1.

`O=C(NS(=O)(=O)c1cnccc1NC1CCCCCC1)N1CCCCC1` returned a lipophilicity (logP) of 4.14.

Compound `CC(C)NC(=S)NS(=O)(=O)c1cnccc1NC1CCCCCC1` yielded a lipophilicity (logP) of 3.86.

Compound `O=C1N=C(N2CCOCC2)CN1Cc1cccc(Cl)c1` displayed a logP of 1.3.

On to `NC1CCN(c2nc3c(cc2F)c(=O)c(C(=O)O)cn3-c2ccc(F)cc2F)C1` (stereo unspecified), for which the logP is -0.46.

`CCN(CC)CCC(=O)Nc1c(C)cc(N)cc1C` returned a lipophilicity (logP) of 0.93.

`ON=Cc1nc(-c2cccs2)no1`: the log partition coefficient (logP) worked out at 2.47.

Compound `C[N+](C)([O-])C(c1ccccc1)c1ccccc1` had a logP of 0.82.

Turning to `COC(=O)C(=Cc1cnc(SC(C)=O)n1C)C(=O)OC`, the logP was -0.43.

Source of the values: the OPERA property sets (Mansouri et al. 2018).
